Data from patent EP3002287B1, “Thiochromeno[2,3-c]quinolin-12-one derivatives and their use as topoisomerase inhibitors” (National Defense Medical Center, priority 2014, dated 2016).

Experiments:
[1] = tested on: OVCAR-5; assay: NCI in vitro 60-cell drug screen (SRB assay); type: cell-based; conditions: OVCAR-5 (Ovarian cancer); 10^-5 molar concentration; 48 hours
[2] = tested on: KM12; assay: NCI in vitro 60-cell drug screen (SRB assay); type: cell-based; conditions: KM12 (Colon cancer); 10^-5 molar concentration; 48 hours
[3] = tested on: IGROV1; assay: NCI in vitro 60-cell drug screen (SRB assay); type: cell-based; conditions: IGROV1 (Ovarian cancer); 10^-5 molar concentration; 48 hours
[4] = tested on: T-47D; assay: NCI in vitro 60-cell drug screen (SRB assay); type: cell-based; conditions: T-47D (Breast cancer); 10^-5 molar concentration; 48 hours
[5] = tested on: A498; assay: NCI in vitro 60-cell drug screen (SRB assay); type: cell-based; conditions: A498 (Renal cancer); 10^-5 molar concentration; 48 hours
[6] = tested on: ACHN; assay: NCI in vitro 60-cell drug screen (SRB assay); type: cell-based; conditions: ACHN (Renal cancer); 10^-5 molar concentration; 48 hours
[7] = tested on: COLO 205; assay: NCI in vitro 60-cell drug screen (SRB assay); type: cell-based; conditions: COLO 205 (Colon cancer); 10^-5 molar concentration; 48 hours
[8] = tested on: 60 cell lines; assay: NCI in vitro 60-cell drug screen (SRB assay), whole panel statistics; conditions: mean over the cell panel; 10^-5 molar concentration; 48 hours
[9] = tested on: TK-10; assay: NCI in vitro 60-cell drug screen (SRB assay); type: cell-based; conditions: TK-10 (Renal cancer); 10^-5 molar concentration; 48 hours
[10] = tested on: MDA-MB-435; assay: NCI in vitro 60-cell drug screen (SRB assay); type: cell-based; conditions: MDA-MB-435 (Melanoma); 10^-5 molar concentration; 48 hours
[11] = tested on: U251; assay: NCI in vitro 60-cell drug screen (SRB assay); type: cell-based; conditions: U251 (CNS cancer); 10^-5 molar concentration; 48 hours
[12] = tested on: NCI/ADR-RES; assay: NCI in vitro 60-cell drug screen (SRB assay); type: cell-based; conditions: NCI/ADR-RES (Ovarian cancer); 10^-5 molar concentration; 48 hours
[13] = tested on: SF-295; assay: NCI in vitro 60-cell drug screen (SRB assay); type: cell-based; conditions: SF-295 (CNS cancer); 10^-5 molar concentration; 48 hours
[14] = tested on: SK-MEL-28; assay: NCI in vitro 60-cell drug screen (SRB assay); type: cell-based; conditions: SK-MEL-28 (Melanoma); 10^-5 molar concentration; 48 hours
[15] = tested on: HOP-92; assay: NCI in vitro 60-cell drug screen (SRB assay); type: cell-based; conditions: HOP-92 (Non-small cell lung cancer); 10^-5 molar concentration; 48 hours
[16] = tested on: HT29; assay: NCI in vitro 60-cell drug screen (SRB assay); type: cell-based; conditions: HT29 (Colon cancer); 10^-5 molar concentration; 48 hours
[17] = tested on: OVCAR-4; assay: NCI in vitro 60-cell drug screen (SRB assay); type: cell-based; conditions: OVCAR-4 (Ovarian cancer); 10^-5 molar concentration; 48 hours
[18] = tested on: MDA-MB-486; assay: NCI in vitro 60-cell drug screen (SRB assay); type: cell-based; conditions: MDA-MB-486 (Breast cancer); 10^-5 molar concentration; 48 hours
[19] = tested on: HL-60(TB); assay: NCI in vitro 60-cell drug screen (SRB assay); type: cell-based; conditions: HL-60(TB) (Leukemia); 10^-5 molar concentration; 48 hours
[20] = tested on: DU-145; assay: NCI in vitro 60-cell drug screen (SRB assay); type: cell-based; conditions: DU-145 (Prostate cancer); 10^-5 molar concentration; 48 hours
[21] = tested on: SK-MEL-2; assay: NCI in vitro 60-cell drug screen (SRB assay); type: cell-based; conditions: SK-MEL-2 (Melanoma); 10^-5 molar concentration; 48 hours
[22] = tested on: UACC-62; assay: NCI in vitro 60-cell drug screen (SRB assay); type: cell-based; conditions: UACC-62 (Melanoma); 10^-5 molar concentration; 48 hours
[23] = tested on: PC-3; assay: MTT assay for cell cytotoxicity; type: cell-based, human; conditions: Homo sapiens, 72 h, at least three independent experiments, read-out: MTT assay (IC50 ± SD) PC-3
[24] = tested on: DU-145; assay: MTT assay for cell cytotoxicity; type: cell-based, human; conditions: Homo sapiens, 72 h, at least three independent experiments, read-out: MTT assay (IC50 ± SD) DU-145
In short: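 Seeded cells pre-incubated 24 h, then treated 72 h with 0.15–15 µM compound in RPMI-1640/5% FBS at 37 °C. MTT (1 mg/mL) added for 4 h, formazan dissolved in DMSO, absorbance at 560 nm; IC50 from mean of ≥3 independent experiments.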

[25] = tested on: OVCAR-3; assay: NCI in vitro 60-cell drug screen (SRB assay); type: cell-based; conditions: OVCAR-3 (Ovarian cancer); 10^-5 molar concentration; 48 hours
[26] = tested on: CCRF-CEM; assay: NCI in vitro 60-cell drug screen (SRB assay); type: cell-based; conditions: CCRF-CEM (Leukemia); 10^-5 molar concentration; 48 hours
[27] = tested on: HCT-15; assay: NCI in vitro 60-cell drug screen (SRB assay); type: cell-based; conditions: HCT-15 (Colon cancer); 10^-5 molar concentration; 48 hours
[28] = tested on: MALME-3M; assay: NCI in vitro 60-cell drug screen (SRB assay); type: cell-based; conditions: MALME-3M (Melanoma); 10^-5 molar concentration; 48 hours

Structure (SMILES)	Growth percent [1] [%]	Growth percent [2] [%]	Growth percent [3] [%]	Growth percent [4] [%]	Growth percent [5] [%]	Growth percent [6] [%]	Growth percent [7] [%]	Growth percent, Mean [8] [%]	Growth percent [9] [%]	Growth percent [10] [%]	Growth percent [11] [%]	Growth percent [12] [%]	Growth percent [13] [%]	Growth percent [14] [%]	Growth percent [15] [%]	Growth percent [16] [%]	Growth percent [17] [%]	Growth percent [18] [%]	Growth percent [19] [%]	Growth percent [20] [%]	other results
O=c1c2cc(Cl)ccc2sc2c(N3CCN(c4ccccc4)CC3)nc3ccccc3c12 [Compound 12, 10-Chloro-6-(4-phenylpiperazin-1-yl)-12H-thiochromeno[2,3-c] quinolin-12-one]	108.10	113.15	91.38	104.57	81.04	94.99	111.67	99.30	112.45	102.39	96.09	100.81	99.23	104.22	81.27	99.94	94.29	86.34	113.79	111.15	Growth percent [21]: 104.26%; Growth percent [22]: 104.48%; IC50 [23]: > 15 µM; IC50 [24]: > 15 µM; Growth percent [25]: 109.63%; Growth percent [26]: 98.41%; Growth percent [27]: 99.81%; Growth percent [28]: 121.84%
O=c1c2cc(Cl)ccc2sc2c(N3CCN(CCO)CC3)nc3ccccc3c12 [Compound 10, 10-Chloro-6-(4-(2-hydroxyethyl)piperazin-1-yl)-12H-thiochrom eno[2,3-c]quinolin-12one]	95.70	101.86	71.67	87.22	62.20	83.05	88.90	84.06	93.19	98.24	83.31	92.05	100.32	100.66	39.64	63.19	85.35	81.67	93.81	96.26	Growth percent [21]: 104.06%; Growth percent [22]: 91.36%; IC50 [23]: > 15 µM; IC50 [24]: > 15 µM; Growth percent [25]: 93.92%; Growth percent [26]: 83.46%; Growth percent [27]: 82.92%; Growth percent [28]: 119.20%
